Measurements: PubChem BioAssay AID256 (DTP/NCI, 2004)
Values joined by “and” are separate entries in the source; they are usually repeats but may differ in a detail not shown here. Equal values may be shown once. Inconclusive results and toxic doses are left out.

System: CD2F1 mice, L1210 leukemia ip, survival T/C
Assay: NCI In Vivo Anticancer Drug Screen. Data for tumor model L1210 Leukemia (intraperitoneal) in CD2F1 (CDF1) mice
Conditions: higher = longer survival
Method in brief: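 Read-out first: treated-group measurement over vehicle-control measurement, expressed as a ratio. Animals bore a transplanted tumor line and were dosed with compound or vehicle.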

[1] = endpoint: mean survival time, dose: 100.0 mg/kg/injection, schedule: Q04DX003 (ip), vehicle: saline with Tween-80
[2] = endpoint: mean survival time, dose: 75.0 mg/kg/injection, schedule: Q01DX001 (ip), vehicle: saline
[3] = endpoint: mean survival time, dose: 150.0 mg/kg/injection, schedule: Q01DX001 (ip), vehicle: saline
[4] = endpoint: mean survival time, dose: 100.0 mg/kg/injection, schedule: Q01DX009 (ip), vehicle: saline with Tween-80
[5] = endpoint: mean survival time, dose: 200.0 mg/kg/injection, schedule: Q01DX009 (ip), vehicle: saline with Tween-80
[6] = endpoint: mean survival time, dose: 200.0 mg/kg/injection, schedule: Q04DX003 (ip), vehicle: saline with Tween-80
[7] = endpoint: mean survival time, dose: 400.0 mg/kg/injection, schedule: Q01DX009 (ip), vehicle: saline with Tween-80
[8] = endpoint: mean survival time, dose: 400.0 mg/kg/injection, schedule: Q04DX003 (ip), vehicle: saline with Tween-80
[9] = endpoint: mean survival time, dose: 100.0 mg/kg/injection, schedule: Q04DX002 (ip), vehicle: saline with Tween-80

In the case of `O=NNc1cnccn1`, the T/C (endpoint: median survival time, dose: 3.12 mg/kg/injection, schedule: Q01DX009 (ip), vehicle: water) is reported as 112 % of control, the T/C (endpoint: median survival time, dose: 6.25 mg/kg/injection, schedule: Q01DX009 (ip), vehicle: water) is reported as 113 % of control and 109 % of control and the T/C (endpoint: median survival time, dose: 8.6 mg/kg/injection, schedule: Q01DX009 (ip), vehicle: water) is reported as 121 % of control and 107 % of control. The T/C (endpoint: median survival time, dose: 11.0 mg/kg/injection, schedule: Q01DX009 (ip), vehicle: water) was 121 % of control and 124 % of control, the T/C (endpoint: median survival time, dose: 12.5 mg/kg/injection, schedule: Q01DX009 (ip), vehicle: water) was 120 % of control and 123 % of control and the T/C (endpoint: median survival time, dose: 14.4 mg/kg/injection, schedule: Q01DX009 (ip), vehicle: water) was 116 % of control and 112 % of control. The T/C (endpoint: median survival time, dose: 24.0 mg/kg/injection, schedule: Q01DX009 (ip), vehicle: water) was 124 % of control, the T/C (endpoint: median survival time, dose: 38.0 mg/kg/injection, schedule: Q01DX009 (ip), vehicle: water) was 221 % of control and 223 % of control and the T/C (endpoint: median survival time, dose: 40.0 mg/kg/injection, schedule: Q01DX009 (ip), vehicle: water) was 183 % of control. The T/C (endpoint: median survival time, dose: 50.0 mg/kg/injection, schedule: Q01DX009 (ip), vehicle: water) was 121 % of control and the T/C (endpoint: median survival time, dose: 100.0 mg/kg/injection, schedule: Q01DX009 (ip), vehicle: water) was 92 % of control.
`Cc1ccc(S(=O)(=O)NOCCCCONS(=O)(=O)c2ccc(C)cc2)cc1` was tested, and the T/C (endpoint: mean survival time, dose: 25.0 mg/kg/injection, schedule: Q04DX003 (ip), vehicle: saline with Tween-80) was 91 % of control, the T/C (endpoint: mean survival time, dose: 50.0 mg/kg/injection, schedule: Q04DX003 (ip), vehicle: saline with Tween-80) was 89 % of control and the T/C [1] was 89 % of control and 97 % of control.
With `CCN1C(=O)/C(=C\C=C2/SCCN2C)OC1=S` the T/C (endpoint: mean survival time, dose: 75.0 mg/kg/injection, schedule: Q01DX001 (ip), vehicle: other) was 92 % of control, the T/C (endpoint: mean survival time, dose: 150.0 mg/kg/injection, schedule: Q01DX001 (ip), vehicle: other) was 100 % of control and the T/C (endpoint: mean survival time, dose: 300.0 mg/kg/injection, schedule: Q01DX001 (ip), vehicle: other) was 94 % of control.
With `CCOC(=O)c1cnc2c(cnn2CC)c1NN=C(C)C` the T/C (endpoint: mean survival time, dose: 100.0 mg/kg/injection, schedule: Q04DX003 (ip), vehicle: saline) was 105 % of control and the T/C (endpoint: mean survival time, dose: 200.0 mg/kg/injection, schedule: Q04DX003 (ip), vehicle: saline) was 105 % of control.
In the case of `CCC(=O)NC1=C(Cl)C(=O)c2ccccc2C1=O`, the T/C (endpoint: mean survival time, dose: 5.0 mg/kg/injection, schedule: Q01DX001 (ip), vehicle: saline) is reported as 91 % of control, the T/C (endpoint: mean survival time, dose: 10.0 mg/kg/injection, schedule: Q01DX001 (ip), vehicle: saline) is reported as 101 % of control and the T/C (endpoint: mean survival time, dose: 20.0 mg/kg/injection, schedule: Q01DX001 (ip), vehicle: saline) is reported as 97 % of control.
For `CC(CN=[N+]=[N-])OC(=O)C(F)(F)F` (configuration not stated), the T/C (endpoint: mean survival time, dose: 37.5 mg/kg/injection, schedule: Q01DX009 (ip), vehicle: saline) was 94 % of control, the T/C [2] was 98 % of control and the T/C (endpoint: mean survival time, dose: 75.0 mg/kg/injection, schedule: Q01DX009 (ip), vehicle: saline) was 94 % of control. The T/C [3] was 101 % of control.
`Cc1cc(N(CCCOS(C)(=O)=O)CCCOS(C)(=O)=O)ccc1C=Nc1ccc(-c2csc(COc3ccccc3)n2)cc1` was tested, and the T/C (endpoint: mean survival time, dose: 100.0 mg/kg/injection, schedule: Q01DX001 (ip), vehicle: saline with Tween-80) was 89 % of control, the T/C [4] was 90 % of control and the T/C (endpoint: mean survival time, dose: 200.0 mg/kg/injection, schedule: Q01DX001 (ip), vehicle: saline with Tween-80) was 91 % of control. For the same compound, the T/C [5] was 86 % of control and the T/C (endpoint: mean survival time, dose: 400.0 mg/kg/injection, schedule: Q01DX001 (ip), vehicle: saline with Tween-80) was 88 % of control.
`Cc1cc(C)c(NC(=O)c2cccc(Cl)c2)c(C)c1` was tested, and the T/C [4] was 104 % of control, the T/C [1] was 94 % of control and the T/C [5] was 98 % of control. The T/C [6] was 96 % of control, the T/C [7] was 105 % of control and the T/C [8] was 88 % of control.
With `CC=C1C=C(C(C)(C)C)C(=O)C(C(C)(C)C)=C1` the T/C (endpoint: mean survival time, dose: 25.0 mg/kg/injection, schedule: Q01DX009 (ip), vehicle: Klucel (hydroxypropylcellulose) (HPC)) was 90 % of control, the T/C (endpoint: mean survival time, dose: 50.0 mg/kg/injection, schedule: Q01DX009 (ip), vehicle: Klucel (hydroxypropylcellulose) (HPC)) was 102 % of control and the T/C (endpoint: mean survival time, dose: 100.0 mg/kg/injection, schedule: Q01DX009 (ip), vehicle: Klucel (hydroxypropylcellulose) (HPC)) was 98 % of control.
With `O=[N+]([O-])c1cccc(OCCOc2ccccc2)c1` the T/C [1] was 98 % of control, the T/C [6] was 94 % of control and the T/C [8] was 91 % of control.
For `Cc1ccc(NC(=S)N2CCCC2)cc1`, the T/C [4] was 97 % of control, the T/C [5] was 91 % of control and the T/C [7] was 95 % of control.
In the case of `CCCCC(CC(=O)O)c1ccc(Cl)cc1` (configuration not stated), the T/C [1] is reported as 95 % of control and the T/C [6] is reported as 101 % of control.
With `CCN(CC)Cc1cc([N+](=O)[O-])ccc1O` the T/C [2] was 104 % of control and the T/C [3] was 100 % of control.
`CC(C)(C)CC(C)(C)SSc1n[nH]c(=S)s1` was tested, and the T/C (endpoint: mean survival time, dose: 2.5 mg/kg/injection, schedule: Q04DX003 (ip), vehicle: Klucel (hydroxypropylcellulose) (HPC)) was 102 % of control, the T/C (endpoint: mean survival time, dose: 5.0 mg/kg/injection, schedule: Q04DX003 (ip), vehicle: Klucel (hydroxypropylcellulose) (HPC)) was 101 % of control and the T/C (endpoint: mean survival time, dose: 10.0 mg/kg/injection, schedule: Q04DX003 (ip), vehicle: Klucel (hydroxypropylcellulose) (HPC)) was 98 % of control and 101 % of control.
`CCC1(CC)C=CC(Br)CC1(CC)CC` (configuration not stated) was tested, and the T/C [4] was 101 % of control, the T/C [5] was 113 % of control and the T/C [7] was 98 % of control.
`CCCCNC1=C(C)C(=O)C2=C(C1=O)C(COC(N)=O)C1(OC)C3NC3CN21` (configuration not stated) was tested, and the T/C (endpoint: mean survival time, dose: 6.3 mg/kg/injection, schedule: Q01DX001 (ip), vehicle: carboxymethylcellulose (CMC)) was 102 % of control, the T/C (endpoint: mean survival time, dose: 9.5 mg/kg/injection, schedule: Q01DX001 (ip), vehicle: carboxymethylcellulose (CMC)) was 118 % of control and the T/C (endpoint: mean survival time, dose: 14.25 mg/kg/injection, schedule: Q01DX001 (ip), vehicle: carboxymethylcellulose (CMC)) was 102 % of control.
In the case of `CC1(C)C(CC(=O)O)CC1C(=O)O` (configuration not stated), the T/C [4] is reported as 98 % of control, the T/C [1] is reported as 100 % of control and the T/C [5] is reported as 98 % of control. For the same compound, the T/C [6] was 96 % of control and the T/C [8] was 100 % of control.
`CC(C)P(=O)(CC(=O)O)c1ccccc1` (configuration not stated) was tested, and the T/C (endpoint: mean survival time, dose: 25.0 mg/kg/injection, schedule: Q04DX002 (ip), vehicle: saline with Tween-80) was 107 % of control, the T/C (endpoint: mean survival time, dose: 50.0 mg/kg/injection, schedule: Q04DX002 (ip), vehicle: saline with Tween-80) was 96 % of control and the T/C [9] was 100 % of control.
In the case of `COC(=O)C(C(=O)OC)C(Br)(OC(C)=O)OC(C)=O`, the T/C [4] is reported as 97 % of control, the T/C [5] is reported as 104 % of control and the T/C [7] is reported as 109 % of control.
In the case of `O=C(N/N=C/c1ccccc1O)c1ccccc1O`, the T/C [4] is reported as 93 % of control, the T/C [5] is reported as 95 % of control and the T/C [7] is reported as 93 % of control.
In the case of `NCC[Se][Se]CCN`, the T/C (endpoint: median survival time, dose: 1.56 mg/kg/injection, schedule: Q01DX009 (ip), vehicle: suspension in saline) is reported as 98 % of control, the T/C (endpoint: median survival time, dose: 3.13 mg/kg/injection, schedule: Q01DX009 (ip), vehicle: suspension in saline) is reported as 105 % of control and the T/C (endpoint: median survival time, dose: 6.25 mg/kg/injection, schedule: Q01DX009 (ip), vehicle: suspension in saline) is reported as 108 % of control.
With `Nc1nc(N)c2cc(CCc3ccc(C(=O)NC(CCC(=O)O)C(=O)O)cc3)ccc2n1` (configuration not stated) the T/C (endpoint: mean survival time, dose: 0.31 mg/kg/injection, schedule: Q01DX009 (ip), vehicle: Klucel (hydroxypropylcellulose) (HPC)) was 119 % of control.
`CN(C=O)C(C(=O)Nc1cccc2c(OC(=O)C(N(C)C=O)(N(C)C=O)N(C)C=O)c(N=Nc3ccc(S(=O)(=O)Nc4nccs4)cc3)cc(N=Nc3ccc(S(=O)(=O)Nc4nccs4)cc3)c12)(N(C)C=O)N(C)C=O` (tested in a mixture with another compound) was tested, and the T/C (endpoint: median survival time, dose: 12.0 mg/kg/injection, schedule: Q01DX009 (ip), vehicle: saline with Tween-80) was 95 % of control, the T/C (endpoint: median survival time, dose: 25.0 mg/kg/injection, schedule: Q01DX009 (ip), vehicle: saline with Tween-80) was 106 % of control and the T/C (endpoint: median survival time, dose: 50.0 mg/kg/injection, schedule: Q01DX009 (ip), vehicle: saline with Tween-80) was 95 % of control. For the same compound, the T/C (endpoint: median survival time, dose: 100.0 mg/kg/injection, schedule: Q01DX009 (ip), vehicle: saline with Tween-80) was 94 % of control, the T/C (endpoint: median survival time, dose: 200.0 mg/kg/injection, schedule: Q01DX009 (ip), vehicle: saline with Tween-80) was 97 % of control and the T/C (endpoint: median survival time, dose: 400.0 mg/kg/injection, schedule: Q01DX009 (ip), vehicle: saline with Tween-80) was 106 % of control.
`Cc1ccc(N2C(=O)C=CC2=O)cc1` was tested, and the T/C (endpoint: mean survival time, dose: 5.0 mg/kg/injection, schedule: Q01DX009 (ip), vehicle: saline sonified) was 94 % of control, the T/C (endpoint: mean survival time, dose: 5.0 mg/kg/injection, schedule: Q04DX003 (ip), vehicle: saline sonified) was 96 % of control and the T/C (endpoint: mean survival time, dose: 10.0 mg/kg/injection, schedule: Q04DX003 (ip), vehicle: saline sonified) was 98 % of control. The T/C (endpoint: mean survival time, dose: 20.0 mg/kg/injection, schedule: Q01DX009 (ip), vehicle: saline sonified) was 90 % of control, the T/C (endpoint: mean survival time, dose: 20.0 mg/kg/injection, schedule: Q04DX003 (ip), vehicle: saline sonified) was 96 % of control and the T/C (endpoint: mean survival time, dose: 100.0 mg/kg/injection, schedule: Q01DX009 (ip), vehicle: acetone) was 88 % of control. For the same compound, the T/C (endpoint: mean survival time, dose: 200.0 mg/kg/injection, schedule: Q01DX009 (ip), vehicle: acetone) was 88 % of control and the T/C (endpoint: mean survival time, dose: 400.0 mg/kg/injection, schedule: Q01DX009 (ip), vehicle: acetone) was 93 % of control.
With `Clc1cc(CBr)c2ccccc2n1` the T/C [9] was 101 % of control.
